Here are results for one compound from publication PMC5510229, “BCAT1 controls metabolic reprogramming in activated human macrophages and is associated with inflammatory diseases” (Nature Communications, 2017).

SMILES strings stand for the structures.

This experiment addresses T1, recombinant human BCAT1 (Homo sapiens, UniProt P54687).
T1 construct: purchased Abcam
T1 sequence (P54687 1-386): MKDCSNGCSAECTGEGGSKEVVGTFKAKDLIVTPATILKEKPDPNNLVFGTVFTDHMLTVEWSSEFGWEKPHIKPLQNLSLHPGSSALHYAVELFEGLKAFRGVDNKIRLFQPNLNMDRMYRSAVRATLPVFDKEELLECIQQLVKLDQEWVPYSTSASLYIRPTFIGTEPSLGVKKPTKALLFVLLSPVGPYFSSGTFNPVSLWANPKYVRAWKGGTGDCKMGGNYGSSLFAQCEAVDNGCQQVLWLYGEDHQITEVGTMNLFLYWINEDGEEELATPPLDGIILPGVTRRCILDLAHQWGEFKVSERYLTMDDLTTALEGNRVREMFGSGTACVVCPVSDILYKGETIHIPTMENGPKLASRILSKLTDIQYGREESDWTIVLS
Nature of the experiment: BCAT1 aminotransferase enzymatic assay (continuous fluorometric). In kind it is biochemical. The settings on record: 100 ng recombinant protein. The source says: To gain more insights into the role of BCAT enzymes in macrophages, we set out to investigate these in human monocyte-derived macrophages (hMDMs) by subjecting these cells to RNA-sequencing (Fig. 1a). […] To examine the role of BCAT1 in macrophage metabolism and inflammatory diseases, we identified a novel BCAT1 inhibitor, ERG240, using molecular modelling approaches based on the X-ray crystal structures of BCAT1 (ref. [22]). ERG240 is a water-soluble structural analogue of leucine (Fig. 1b). Its ability to suppress the BCAT1 aminotransferase activity was measured in a continuous fluorometric assay (ref. [23] and see Supplementary Methods). […]
Figure 1 BCAT1 expression and inhibition in human macrophages. […] (d) Relative expression of IRG1, HIF1A and IL1B measured by qRT-PCR in control, ERG240-treated (20 mM, 3 h), LPS treated (100 ng ml^−1, 3 h), and LPS+ERG240 treated (LPS, 100 ng ml^−1; ERG240, 20 mM for 3 h) hMDMs. ns, non-significant. […]
Finall y, th e libraries were size selected using AM Pure XP Beads (Beckman Coulter) purified and their quality was checked using Agilent 2100 Bioanalyzer. Samples were randomized to avoid batch effects and multiplexed libraries wer e run on a single lan e (6 samples/lane) of the HiSeq 2500 platform (Illumina) to generate 100bp paired-end reads. […]
respectivel y. RNA-seq reads were aligned to human (hg19) or mouse (mm10) reference genomes using tophat2. […]

A word on the IC50: it is the point on the concentration scale where inhibition reaches its midpoint.

Turning to `CC(=O)C(C)CCC(=O)O` (stereo not shown) [ERG240], the IC50 is 0.1 to 1 nM.
